Where two headings read alike, the source gives them in different places.
Legend:
Assay type in all cases: cell-based
RAW 264.7 γNO(−) cells = experiment: Cytokine induction and ELISAs in mouse macrophages (RAW 264.7 γNO(−) cells); conditions: for EC50: Example II, ELISA, best-fit value; for EC50 / TNF-α and IFN-β production, dose response (in words): supernatant, 5.5 h; for TNF-α and IFN-β production, dose response (in words): wide range of concentrations
Experimental: Mouse macrophages (RAW 264.7 γNO(−) cells) were exposed over a wide range of concentrations to compounds 1-5 and E. coli 055:B5 LPS. After 5.5 hours, the supernatants were harvested and examined for mouse TNF-α and IFN-β using a commercial and in-house developed capture ELISA assay, respectively. Potencies (EC50, concentration producing 50% activity) and efficacies (maximal level of production) were determined by fitting the dose-response curves to a logistic equation using PRISM software. […] It has also been shown that removal of the KDO moieties by mild acidic treatment reduces cellular responses (Demchenko et al., J. Am. Chem. Soc. 2003, 125, 6103-6112).
Having established the EC50 values of TNF-α and IFN-β secretion by compounds 1-5 and E. coli 055:B5 LPS, attention was focused on IL-6, IP-10, RANTES, and IL-1β responses. Thus, the previously harvested supernatants were analyzed for these cytokines using capture ELISA assays (FIG. 4, Table 1). For IL-6, IP-10, and RANTES, a short incubation time of 5.5 hrs was sufficient for detection. To achieve significant IL-1β secretion, the incubation had to be extended to 24 hrs. […] IL-1β is expressed as a pro-protein (pro-IL-1β), which is cleaved by caspase-1 into its active form (IL-1β), which is then secreted. Indeed, analyzing IL-1β of the cell lysates by Western blotting confirmed that it was present as a pro-protein (data not shown). TNF-α is also produced as a pro-protein, which is proteolitically cleaved by tumor necrosis factor-α converting enzyme (TACE) (Skotnicki and Levin, Annu. Rep. Med. Chem. 2003, 38, 153-162; Duffy et al., Thromb. Haemost. 2003, 89, 622-631). […] Furthermore, for each of the synthetic compounds and LPS, EC50 values of secreted TNF-α and intracellular pro-IL-1β were very similar. However, EC50 values for secreted mature IL-1β were larger by as much as 100-fold.
RAW 264.7 γNO(−) cells were plated on the day of the exposure assay as 2×10^5 cells/well in 96-well tissue culture plates (Nunc). Cells were incubated with different stimuli for 5.5 and 24 hours in replicates of five. Culture supernatants were then collected, pooled, and stored frozen (−80° C.) until assayed for cytokine production. After removal of the supernatant, cells were lysed by adding PBS containing Tween 20 (0.01%) and BSA (1%) in the same volume as that of the supernatant and sonicating for 5 min. The cell lysates were pooled and stored frozen (−80° C.) until assayed for cytokine production.
All cytokine ELISAs were performed in 96-well MaxiSorp plates (Nunc). Cytokine DuoSet ELISA Development Kits (R&D Systems) were used for the cytokine quantification of mouse TNF-α, IL-6, IP-10, RANTES, and IL-1β according to the manufacturer's instructions. The absorbance was measured at 450 nm with wavelength correction set to 540 nm using a microplate reader (BMG Labtech). Concentrations of IFN-β in culture supernatants were determined as follows. ELISA MaxiSorp plates were coated with rabbit polyclonal antibody against mouse IFN-β (PBL Biomedical Laboratories). IFN-β in standards and samples was allowed to bind to the immobilized antibody. Rat anti-mouse IFN-β antibody (USBiological) was then added, producing an antibody-antigen-antibody “sandwich”. Next, horseradish peroxidase (HRP) conjugated goat anti-rat IgG (H+L) antibody (Pierce) and a chromogenic substrate for HRP 3,3′,5,5′-tetramethylbenzidine (TMB; Pierce) were added. After the reaction was stopped, the absorbance was measured at 450 nm with wavelength correction set to 540 nm. All cytokine values are presented as the means±SD of triplicate measurements, with each experiment being repeated three times.
Concentration-response data were analyzed using nonlinear least-squares curve fitting in Prism (GraphPad Software, Inc.). […] The Hillslope was set at 1 to be able to compare the EC50 values of the different inducers. […]

human TLR2 = target: T1, human TLR2 (Homo sapiens, UniProt O60603); experiment: NF-κB activation in HEK 293T cells stably transfected with human TLR2; conditions: 103/104 at 0.1, 1 and 10 μg mL−1; Pam3CysSK4 1 μg mL−1; 4 h
T1 construct: host or cells: HEK 293T
Experimental: (§1) Induction of NF-κB activation was determined in triplicate cultures of HEK 293T cells stably transfected with human or mouse (a) TLR4/MD2/CD14 and (b) TLR2 and transiently transfected with pELAM-Luc and pRL-TK plasmids. Forty-four h post-transfection, cells were treated with (B) E. coli LPS (10 ng mL^−1), (C) Pam3CysSK4 (1 μg mL^−1), (D, E and F) 103 (0.1, 1 and 10 μg mL^−1, respectively), (G, H and I) 104 (0.1, 1 and 10 μg mL^−1, respectively) or (A) were left untreated (control). Forty-eight h post-transfection, NF-κB activation was determined by firefly luciferase activity relative to Renilla luciferase activity. n.a. indicates not analyzed.
(§2) To examine the ability of the synthetic compounds to induce activation of NF-κB, HEK 293T cells were employed that were stably transfected with various immune receptors and transiently transfected with a plasmid containing the reporter gene pELAM-Luc (NF-κB-dependent firefly luciferase reporter vector) and a plasmid containing the control gene pRL-TK (Renilla luciferase control reporter vector) (FIG. 11). […] Although compound 104 is a weak activator of mouse TLR4, it could not induce the secretion of cytokines.
(§3) The day before transfection, HEK 293T wild type cells and HEK 293T cells stably transfected with human and murine TLR4/MD2/CD14 and human and murine TLR2 were plated in 96-well tissue culture plates (16,000 cells/well). The next day, cells were transiently transfected using PolyFect Transfection Reagent (Qiagen) with expression plasmids pELAM-Luc (NF-κB-dependent firefly luciferase reporter plasmid, 50 ng/well) (Chow et al., J. Biol. Chem., 1999, 274, 10689-10692) and pRL-TK (Renilla luciferase control reporter vector, 1 ng/well; Promega) as an internal control to normalize experimental variations. […] The luciferase activity was measured using the Dual-Luciferase Reporter Assay System (Promega) according to the manufacturer's instructions and a combination luminometer/fluorometer microplate reader (BMG Labtech). […]

mouse TLR2 = target: T2, mouse TLR2 (Mus musculus, UniProt Q9QUN7); experiment: NF-κB activation in HEK 293T cells stably transfected with mouse TLR2; conditions: 103/104 at 0.1, 1 and 10 μg mL−1; Pam3CysSK4 1 μg mL−1; 4 h
T2 construct: host or cells: HEK 293T
Experimental: as §1, §2, §3

[1] = at the highest concentration tested

T2 sequence (Q9QUN7 25-784): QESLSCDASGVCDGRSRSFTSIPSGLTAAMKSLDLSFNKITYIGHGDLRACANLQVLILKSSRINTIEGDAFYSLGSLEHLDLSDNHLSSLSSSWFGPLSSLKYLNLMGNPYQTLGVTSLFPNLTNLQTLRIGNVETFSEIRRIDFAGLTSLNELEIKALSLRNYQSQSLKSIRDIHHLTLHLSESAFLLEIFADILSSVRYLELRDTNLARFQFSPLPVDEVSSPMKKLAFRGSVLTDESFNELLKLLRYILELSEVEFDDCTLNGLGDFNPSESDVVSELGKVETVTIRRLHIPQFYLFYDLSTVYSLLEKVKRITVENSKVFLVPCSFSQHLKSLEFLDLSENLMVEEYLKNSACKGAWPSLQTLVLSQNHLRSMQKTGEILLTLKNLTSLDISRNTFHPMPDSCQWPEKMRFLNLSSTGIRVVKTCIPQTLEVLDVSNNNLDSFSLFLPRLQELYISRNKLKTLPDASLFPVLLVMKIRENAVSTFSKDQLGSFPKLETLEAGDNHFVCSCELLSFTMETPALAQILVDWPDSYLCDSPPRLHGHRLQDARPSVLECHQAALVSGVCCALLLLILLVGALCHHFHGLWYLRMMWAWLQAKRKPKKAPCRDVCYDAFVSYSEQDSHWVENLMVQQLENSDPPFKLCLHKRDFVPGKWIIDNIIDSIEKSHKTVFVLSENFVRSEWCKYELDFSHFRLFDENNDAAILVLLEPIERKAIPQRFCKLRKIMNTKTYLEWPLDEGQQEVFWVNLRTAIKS
T1 sequence (O60603 21-784): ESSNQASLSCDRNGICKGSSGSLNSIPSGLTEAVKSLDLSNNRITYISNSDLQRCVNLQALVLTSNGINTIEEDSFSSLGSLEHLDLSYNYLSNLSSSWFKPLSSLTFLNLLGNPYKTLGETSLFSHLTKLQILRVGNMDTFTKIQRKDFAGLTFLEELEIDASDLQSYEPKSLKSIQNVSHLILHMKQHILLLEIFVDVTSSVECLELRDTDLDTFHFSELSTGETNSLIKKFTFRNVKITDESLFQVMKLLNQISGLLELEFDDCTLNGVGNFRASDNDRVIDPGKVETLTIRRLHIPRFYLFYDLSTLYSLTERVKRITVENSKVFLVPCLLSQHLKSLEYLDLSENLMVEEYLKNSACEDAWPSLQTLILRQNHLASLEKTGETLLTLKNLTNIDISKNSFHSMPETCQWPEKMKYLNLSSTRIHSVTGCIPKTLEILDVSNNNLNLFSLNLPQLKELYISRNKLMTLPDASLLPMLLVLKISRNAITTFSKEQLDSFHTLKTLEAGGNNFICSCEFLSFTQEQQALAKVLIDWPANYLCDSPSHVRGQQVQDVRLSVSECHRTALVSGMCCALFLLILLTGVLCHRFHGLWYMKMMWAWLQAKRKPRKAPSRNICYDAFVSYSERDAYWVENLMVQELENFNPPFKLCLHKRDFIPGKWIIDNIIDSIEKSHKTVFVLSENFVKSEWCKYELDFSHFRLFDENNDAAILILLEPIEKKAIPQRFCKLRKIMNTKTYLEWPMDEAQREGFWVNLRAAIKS

Compound	EC50 (RAW 264.7 γNO(−) cells; read-out: EC50 IFN-β)	EC50 (RAW 264.7 γNO(−) cells; read-out: EC50 TNF-α)	TNF-α and IFN-β production, dose response (in words) (RAW 264.7 γNO(−) cells)	other results
3-O—[(R)-3-Hydroxy-dodecanoyl]-2-deoxy-2-[(R)-3-dodecanoyloxy-tetradecanoylamino]-(R)-D-glucopyranosyl-(1→6)-2-[(R)-3-hydroxy-dodecanoylamino]-3-O—[(R)-3-dodecanoyloxy-dodecanoyl]-2-deoxy-α-D-glucopyranoside 1,4′-bisphosphate [lipid A 51]	4 nM	1.5 nM		
CCCCCCCCCCCCCCCC(=O)O[C@H](CCCCCCCCCCC)CC(=O)N[C@H]1[C@@H](OP(=O)(O)O)O[C@H](CO[C@@H]2O[C@H](CO)[C@@H](OP(=O)(O)O)[C@H](OC(=O)C[C@@H](CCCCCCCCCCC)OC(=O)CCCCCCCCCCCCC)[C@H]2NC(=O)C[C@@H](CCCCCCCCCCC)OC(=O)CCCCCCCCCCC)[C@@H](O)[C@@H]1OC(=O)C[C@H](O)CCCCCCCCCCC [Lipid A 3, 6-O-{2-Deoxy-2-[(R)-3-dodecanoyloxy-tetradecanoylamino]-3-O—[(R)-3-tetradecanoyloxy-tetradecanoyl]-β-D-glucopyranosyl}-2-deoxy-2-[(R)-3-hexadecanoyl-tetradecanoylamino]-3-O—[(R)-3-hydroxy-tetradecanoyl]-α-D-glucopyranose 1,4′-bisphosphate]			only a partial response at the highest concentration tested	formation of IL-6, RANTES, and IL-1β (RAW 264.7 γNO(−) cells; [1]): no formation; production of TNF-α, IFN-β, and IP-10 (RAW 264.7 γNO(−) cells; [1]): induced the production
CCCCCCCCCCCCCCCC(=O)O[C@H](CCCCCCCCCCC)CC(=O)N[C@@H]1[C@@H](OC(=O)C[C@H](O)CCCCCCCCC)[C@H](O)[C@@H](CO[C@@H]2O[C@H](CO)[C@@H](O)[C@H](OC(=O)C[C@@H](CCCCCCCCC)OC(=O)CCCCCCCCCCC)[C@H]2NC(=O)C[C@@H](CCCCCCCCCCC)OC(=O)CCCCCCCCCCC)O[C@@H]1O [Lipid A 5, 6-O-{2-Deoxy-3-O—[(R)-3-dodecanoyloxy-dodecanoyl]-2-[(R)-3-dodecanoyloxy-tetradecanoylamino]-β-D-glucopyranosyl}-2-deoxy-2-[(R)-3-hexadecanoyloxy-tetredecanoylamino]-3-O—[(R)-3-hydroxy-dodecanoyl]-α-D-glucopyranose]			inactive	
(3-Deoxy-α-D-manno-oct-2-ulopyranosyl)onate-(2->6)-3-O—[(R)-3-hydroxy-dodecanoyl]-2-deoxy-2-[(R)-3-dodecanoyloxy-tetradecanoyl]-(R)-D-glucopyranosyl-(1→6)-3-O—[(R)-3-hydroxy-dodecanoyl]-2-deoxy-2-[(R)-3-dodecanoyloxy-tetradecanoyl]-α-D-glucopyranose 1,4′-biphosphate [lipid A 53]	0.2 nM	0.092 nM		
Pam3CysSK4 [reference compound]				NF-κB activation, human TLR2 (human TLR2): able to activate; NF-κB activation, mouse TLR2 (mouse TLR2): able to activate

— patent US9309276B2, “Synthetic lipid A derivative” (University of Georgia Research Foundation, Inc., priority 2007, dated 2016)
